The record followed here is PMC11995724, “Antibiotic target discovery by integrated phenotypic and activity-based profiling of electrophilic fragments” (Cell chemical biology, 2025).

The data set in a line: in vitro. The settings on record: human, hek293t cells.
As usually defined, the viability is a read-out of living cells in per cent, often relative to untreated cells. With `COc1cc(C=C(C#N)C(=O)Nc2cccc3ncccc23)ccc1O` [9-F22, 2-cyano-3-(4-hydroxy-3-methoxyphenyl)-N-(quinolin-5-yl)prop-2-enamide], the viability at 48 h, 25 µM was determined as 112%.

On to `CC(Cl)C(=O)Nc1nc(-c2cccc([N+](=O)[O-])c2)cs1` (centres unmarked) [4-E08, 2-chloro-N-[4-(3-nitrophenyl)-1,3-thiazol-2-yl]propanamide], for which the viability at 48 h, 25 µM worked out at 59.7%.

On to `CCc1ccc(CNC(=O)CCl)s1` [6-K05, 2-chloro-N-[(5-ethylthiophen-2-yl)methyl]acetamide], for which the viability at 48 h, 25 µM was 5.18%.

With `COc1cc(Cl)c(C)cc1N1C(=O)C=CC1=O` [10-B15, 1-(4-chloro-2-methoxy-5-methylphenyl)-2,5-dihydro-1H-pyrrole-2,5-dione], the viability at 48 h, 25 µM came to 85.2%.

On to `COc1ccc(C=C(C#N)C(=O)Nc2ccc(C(=O)O)cc2)cc1C` [9-G14, 4-[2-cyano-3-(4-methoxy-3-methylphenyl)prop-2-enamido]benzoic acid], for which the viability at 48 h, 25 µM is 108%.

As for `CC(Cl)C(=O)Nc1cccc(C#N)c1` (centres unmarked) [5-B10, 2-chloro-N-(3-cyanophenyl)propanamide], the viability at 48 h, 25 µM was 77.3%.

`Cn1cc(C=C(C#N)C(=O)Nc2ccccc2F)c(-c2ccncc2)n1` [9-L15, 2-cyano-N-(2-fluorophenyl)-3-[1-methyl-3-(pyridin-4-yl)-1H-pyrazol-4-yl]prop-2-enamide]: the viability at 48 h, 25 µM worked out at 130%.

Turning to `C=CC(=O)N1CCC(C(=O)N(C)C(C)Cc2ccc(C)cc2)CC1` (centres unmarked) [2-F14, N-methyl-N-[1-(4-methylphenyl)propan-2-yl]-1-(prop-2-enoyl)piperidine-4-carboxamide], the viability at 48 h, 25 µM came to 79.5%.

For `CC(NC(=O)C(C#N)=Cc1ccc2c(c1)OCCO2)c1ccccc1` (centres unmarked) [8-M15, 2-cyano-3-(2,3-dihydro-1,4-benzodioxin-6-yl)-N-(1-phenylethyl)prop-2-enamide], the viability at 48 h, 25 µM was 64.3%.

Take `CC(C)c1ccc(CC(=O)CCl)cc1` [10-I17, 1-chloro-3-[4-(propan-2-yl)phenyl]propan-2-one]: the viability at 48 h, 25 µM stood at 73.5%.

Consider `Cn1ccnc1C(NC(=O)CCl)c1ccccc1` (centres unmarked) [4-H20, 2-chloro-N-[(1-methyl-1H-imidazol-2-yl)(phenyl)methyl]acetamide], for which the viability at 48 h, 25 µM was determined as 44.4%.

Regarding `Cc1nccn1Cc1ccc(NC(=O)C(C#N)=Cc2ccco2)cc1` [9-H12, 2-cyano-3-(furan-2-yl)-N-{4-[(2-methyl-1H-imidazol-1-yl)methyl]phenyl}prop-2-enamide], the viability at 48 h, 25 µM was found to be 93%.

Take `C=CC(=O)NCC1(C)CCS(=O)(=O)CC1` [1-G16, N-[(4-methyl-1,1-dioxo-1lambda6-thian-4-yl)methyl]prop-2-enamide]: the viability at 48 h, 25 µM turned out to be 83.1%.

Take `CCc1ccc(NC(=O)C(C#N)=Cc2ccc(F)c(C#N)c2)cc1` [8-M20, 2-cyano-3-(3-cyano-4-fluorophenyl)-N-(4-ethylphenyl)prop-2-enamide]: the viability at 48 h, 25 µM stood at 23.7%.

On to `Cc1ncccc1OCC1CCCN1C(=O)C(C)Cl` (centres unmarked) [7-C18, 2-chloro-1-(2-{[(2-methylpyridin-3-yl)oxy]methyl}pyrrolidin-1-yl)propan-1-one], for which the viability at 48 h, 25 µM is 76.6%.

With `Cc1ccc(NC(=O)C(C#N)=Cc2ccc(C(C)(C)C)cc2)cc1C` [9-E04, 3-(4-tert-butylphenyl)-2-cyano-N-(3,4-dimethylphenyl)prop-2-enamide], the viability at 48 h, 25 µM turned out to be 104%.

For the compound `COc1cc(C=C(C#N)C(=O)Nc2ccc(C)cc2)cc(Cl)c1O` [8-P05, 3-(3-chloro-4-hydroxy-5-methoxyphenyl)-2-cyano-N-(4-methylphenyl)prop-2-enamide], the viability at 48 h, 25 µM was found to be 95.6%.

`COc1ccc(CNC(=O)C(C)Cl)cc1` (centres unmarked) [5-J18, 2-chloro-N-[(4-methoxyphenyl)methyl]propanamide]: the viability at 48 h, 25 µM turned out to be 98.5%.

With `CC(Cl)C(=O)N1CCCCC1c1nc(-c2ncccn2)no1` (centres unmarked) [7-D15, 2-chloro-1-{2-[3-(pyrimidin-2-yl)-1,2,4-oxadiazol-5-yl]piperidin-1-yl}propan-1-one], the viability at 48 h, 25 µM was 85.8%.

With `C=CC(=O)N(C)Cc1cccnc1` [3-L11, N-methyl-N-[(pyridin-3-yl)methyl]prop-2-enamide], the viability at 48 h, 25 µM worked out at 82%.

As to `O=C1C=CC(=O)N1c1ccc(SC(F)F)cc1` [10-A18, 1-{4-[(difluoromethyl)sulfanyl]phenyl}-2,5-dihydro-1H-pyrrole-2,5-dione], the viability at 48 h, 25 µM came out at 3.22%.

Consider `C=CC(=O)NC1CCn2cccc2C1` (centres unmarked) [3-N11, N-(5,6,7,8-tetrahydroindolizin-7-yl)prop-2-enamide], for which the viability at 48 h, 25 µM was found to be 71.4%.

In the case of `C=CC(=O)NCCc1nccs1` [3-M20, N-[2-(1,3-thiazol-2-yl)ethyl]prop-2-enamide], the viability at 48 h, 25 µM was determined as 89.6%.

Turning to `COc1cc(CN(C(=O)CCl)C2CC2)ccc1O` [7-H18, 2-chloro-N-cyclopropyl-N-[(4-hydroxy-3-methoxyphenyl)methyl]acetamide], the viability at 48 h, 25 µM amounted to 0.647%.

On to `CC(NC(=O)C(C#N)=Cc1ccco1)c1cccc(-n2cccn2)c1` (centres unmarked) [9-J04, 2-cyano-3-(furan-2-yl)-N-{1-[3-(1H-pyrazol-1-yl)phenyl]ethyl}prop-2-enamide], for which the viability at 48 h, 25 µM was found to be 95.9%.

As to `O=C(CCl)N(Cc1ccc(F)cc1)C12CC3CC(CC(C3)C1)C2` [4-B11, N-(adamantan-1-yl)-2-chloro-N-[(4-fluorophenyl)methyl]acetamide], the viability at 48 h, 25 µM is -0.169%.

`C=CC(=O)Nc1cc(OC)ccc1C(=O)N(C)OC` [1-J14, N,4-dimethoxy-N-methyl-2-(prop-2-enamido)benzamide]: the viability at 48 h, 25 µM was determined as 74.9%.

For the compound `C=CC(=O)NCc1ccc(-c2noc(C)n2)cc1` [3-P22, N-{[4-(5-methyl-1,2,4-oxadiazol-3-yl)phenyl]methyl}prop-2-enamide], the viability at 48 h, 25 µM worked out at 94.1%.

For `N#CC(C(=O)CCl)=C1Nc2cc(Cl)ccc2S1` [10-O08, 4-chloro-2-(5-chloro-2,3-dihydro-1,3-benzothiazol-2-ylidene)-3-oxobutanenitrile], the viability at 48 h, 25 µM was 101%.

For `Cc1ccc(N2C(=O)C=CC2=O)c([N+](=O)[O-])c1` [10-N13, 1-(4-methyl-2-nitrophenyl)-2,5-dihydro-1H-pyrrole-2,5-dione], the viability at 48 h, 25 µM stood at 133%.

Turning to `CC(Cl)C(=O)Nc1cccc(CSc2ccccn2)c1` (centres unmarked) [5-B18, 2-chloro-N-{3-[(pyridin-2-ylsulfanyl)methyl]phenyl}propanamide], the viability at 48 h, 25 µM came to 119%.

With `C=CC(=O)N1CCC(NC(=O)Nc2ccccc2OC)CC1` [1-K13, 3-(2-methoxyphenyl)-1-[1-(prop-2-enoyl)piperidin-4-yl]urea], the viability at 48 h, 25 µM amounted to 106%.

`C=CC(=O)N1C[C@H](NC(C)=O)[C@@H](c2ccnn2C)C1` (racemic) [2-M16, rac-N-[(3R,4S)-4-(1-methyl-1H-pyrazol-5-yl)-1-(prop-2-enoyl)pyrrolidin-3-yl]acetamide]: the viability at 48 h, 25 µM amounted to 96%.

For `CC(Cl)C(=O)Nc1c(C(C)C)cccc1C(C)C` (centres unmarked) [4-B15, N-[2,6-bis(propan-2-yl)phenyl]-2-chloropropanamide], the viability at 48 h, 25 µM came to 93.3%.

`Cc1nc(C)c(C(=O)CCl)o1` [10-N08, 2-chloro-1-(2,4-dimethyl-1,3-oxazol-5-yl)ethan-1-one]: the viability at 48 h, 25 µM is 76.1%.

Consider `O=C(CCl)Nc1cc(C2CC2)nn1-c1ccccc1` [4-I15, 2-chloro-N-(3-cyclopropyl-1-phenyl-1H-pyrazol-5-yl)acetamide], for which the viability at 48 h, 25 µM came out at 1.44%.

With `CC(=O)Nc1ccc(C(=O)CCl)cc1` [10-O12, N-[4-(2-chloroacetyl)phenyl]acetamide], the viability at 48 h, 25 µM was determined as 12.6%.

For the compound `CC(Cl)C(=O)N1CCC(n2ncc3ccccc32)C1` (centres unmarked) [7-K04, 2-chloro-1-[3-(1H-indazol-1-yl)pyrrolidin-1-yl]propan-1-one], the viability at 48 h, 25 µM was 92.4%.

With `CC(Cl)C(=O)NCc1ccccc1S(=O)(=O)N1CCOCC1` (centres unmarked) [7-K15, 2-chloro-N-{[2-(morpholine-4-sulfonyl)phenyl]methyl}propanamide], the viability at 48 h, 25 µM is 86%.

On to `O=C(CCl)Cc1ccc(Cl)cc1Cl` [10-A15, 1-chloro-3-(2,4-dichlorophenyl)propan-2-one], for which the viability at 48 h, 25 µM was found to be 0.248%.

As to `C=CC(=O)Nc1cnoc1C(C)C` [3-L10, N-[5-(propan-2-yl)-1,2-oxazol-4-yl]prop-2-enamide], the viability at 48 h, 25 µM was 92.6%.

With `CCN(Cc1ccc(C#N)cc1F)C(=O)CCl` [5-H08, 2-chloro-N-[(4-cyano-2-fluorophenyl)methyl]-N-ethylacetamide], the viability at 48 h, 25 µM turned out to be 0.591%.

Turning to `C=CC(=O)N(C)CC(=O)NC1CCN(C(=O)c2ccc(C)cc2)CC1` [2-N14, N-methyl-N-({[1-(4-methylbenzoyl)piperidin-4-yl]carbamoyl}methyl)prop-2-enamide], the viability at 48 h, 25 µM amounted to 66.3%.

Turning to `CCOC(=O)c1[nH]c(C)c(C(=O)CCl)c1C` [10-A10, ethyl 4-(2-chloroacetyl)-3,5-dimethyl-1H-pyrrole-2-carboxylate], the viability at 48 h, 25 µM was 0.365%.

Take `CC(Cl)C(=O)NC1CS(=O)(=O)Cc2ccccc21` (centres unmarked) [6-L20, 2-chloro-N-(2,2-dioxo-3,4-dihydro-1H-2lambda6-benzothiopyran-4-yl)propanamide]: the viability at 48 h, 25 µM was 93.5%.

In the case of `CN(C)S(=O)(=O)c1cccc(NC(=O)CCl)c1` [4-J08, 2-chloro-N-[3-(dimethylsulfamoyl)phenyl]acetamide], the viability at 48 h, 25 µM came out at 0.946%.

`CCn1cc(N2C(=O)C=CC2=O)cn1` [10-I21, 1-(1-ethyl-1H-pyrazol-4-yl)-2,5-dihydro-1H-pyrrole-2,5-dione]: the viability at 48 h, 25 µM was found to be 38.5%.

For `Cc1cc(C)c(NC(=O)C(C#N)=Cc2ccc(C(C)(C)C)cc2)c(C)c1` [8-I13, 3-(4-tert-butylphenyl)-2-cyano-N-(2,4,6-trimethylphenyl)prop-2-enamide], the viability at 48 h, 25 µM was 9.25%.

In the case of `C=CC(=O)N1CCC(NC(C)=O)C1` (centres unmarked) [1-B19, N-[1-(prop-2-enoyl)pyrrolidin-3-yl]acetamide], the viability at 48 h, 25 µM was found to be 114%.

As for `N#C/C(C(=O)Nc1ccc(C(F)(F)F)cc1)=C(/O)C1CC1` [9-N22, (2Z)-2-cyano-3-cyclopropyl-3-hydroxy-N-[4-(trifluoromethyl)phenyl]prop-2-enamide], the viability at 48 h, 25 µM was found to be 82.6%.
